Experimental data as given in patent publication US20210244813A1, “ADJUVANT AND VACCINE COMPOSITIONS” (priority 2012, published 2021).

Test system: IL-4
Experiment: Relative IL-4 mRNA expression (real time RT-PCR) in cultured splenic lymphocytes of vaccinated mice
Format: cell-based
Settings: vaccine treatment group; culture with LAP, LAP/QAC or OVA

For OVA, the “IL-4 expression normalized to ARBP at 48 hours in culture” value was “Increased IL-4 expression was observed for some animals”.
